Results on 18 compounds are retold here after patent US4587052A, “1H-pyrrolo-[2,1-C][1,4]benzodiazepine-2-acrylamide compounds having antitumor activity” (priority 1983, dated 1986).

Like-named read-outs stand apart in the source and are kept apart here.

Series [1] concerns mouse ascitic leukemia p388. The experiment in a line: Antitumor activity test (mouse ascitic leukemia p388 i.p. in BDF1-strain male mice). The class given is in vivo. Conditions: for Therapeutic index: Table 2, toxic dose/effective dose; for Prolongation of survival time, %: ip. As for the experimental part: 10^6 Cells of mouse ascitic leukemia p388 were administered intraperitoneally into each member of the groups of 8 to 12 BDF1 -strain male mice, each 18 to 20 g in body weight. After 24 hr from the administration, a test compound was intraperitoneally administered to each member of the test group in a predetermined dose once a day for 4 consecutive days. Days elapsed until death of the test animal were counted for each mouse. To each member of the control group, a physiological saline solution was administered. The average survival period of the animal was represented by mean survival time. The prolongation of survival time, indicative of the effectiveness of a test compound, was calculated by the following equation. [formula] The therapeutic index was calculated by the following equation. [formula]

The nature of series [2]: in vivo. Conditions: mouse, ip. The protocol: A test compound was dissolved in dimethyl sulfoxide and the solution was diluted to 50-fold with a physiological saline solution. This original solution was serially diluted at a common ratio of 1.15. Each resulting solution was administered intraperitoneally to groups of 10 to 15 dd-strain male mice, each 18 to 20 g in body weight. […] The LD50 was calculated from the number of dead mice of each group according to the Probit method.

The conditions of series [3]: already known; cited from earlier work.
The conditions of series [4]: already known; cited from earlier work. The source holds these as a separate data set.
[5] abbreviates: Table 2, i.p., dd-strain male mice, 3 weeks, read-out: LD50.
Where [6] appears, read: Table 1, i.p., dd-strain male mice, 3 weeks, read-out: LD50.

With `Cc1ccc2c(c1OCCC#N)NC(O)C1CC(/C=C/C(N)=O)=CN1C2=O` (stereo not drawn) [(CH2)2 CN, 5,10,11,11a-tetrahydro-9-(2-cyanoethoxy)-11-hydroxy-8-methyl-5-oxo-1H-pyrrolo-[2,1-C][1,4]benzodiazepine-2-acrylamide], the Therapeutic index in series [1] was found to be 103.8. The 50% lethal dose (LD50) at 504 h in series [2] (setting [5]) worked out at 118 mg/kg.
Take `COC1Nc2c(ccc(C)c2OC(=O)c2cccc([N+](=O)[O-])c2C(=O)O)C(=O)N2C=C(C=CC(N)=O)CC12` (stereo not drawn) [5,10,11,11a-tetrahydro-9-(2-carboxy-3-nitrophenylcarbonyloxy)-11-methoxy-8-methyl-5-oxo-1H-pyrrolo-[2,1-C][1,4]-benzodiazepine-2-acrylamide]: in series [1] (30 mg/kg), the “Prolongation of survival time, %” value came to 152%. The median lethal dose (LD50) at 504 h in series [2] (setting [6]) came out at 95 mg/kg.
The like results for `COC1Nc2c(ccc(C)c2OC(=O)c2ccccc2C(=O)O)C(=O)N2C=C(C=CC(N)=O)CC12` (stereo not drawn) [5,10,11,11a-tetrahydro-9-(2-carboxyphenylcarbonyloxy)-11-methoxy-8-methyl-5-oxo-1H-pyrrolo-[2,1-C][1,4]-benzodiazepine-2-acrylamide] were, in that order, 130.2% and 86.9 mg/kg.
In the case of `Cc1ccc2c(c1OC(=O)COCC(=O)O)NC(O)C1CC(/C=C/C(N)=O)=CN1C2=O` (stereo not drawn) [COCH2OCH2COOK, 5,10,11,11a-tetrahydro-9-(4-carboxy-3-oxabutanoyloxy)-11-hydroxy-8-methyl-5-oxo-1H-pyrrolo-[2,1-C][1,4]-benzodiazepine-2-acrylamide], in series [1] (30 mg/kg), the “Prolongation of survival time, %” value amounted to 181.2%. Moreover, in series [2] (setting [6]), the LD50 at 504 h came out at 160 mg/kg.
For `COC1Nc2c(ccc(C)c2OCC(=O)O)C(=O)N2C=C(/C=C/C(N)=O)CC12` (stereo not drawn) [CH2 COONa, 5,10,11,11a-tetrahydro-9-carboxymethoxy-11-methoxy-8-methyl-5-oxo-1H-pyrrolo-[2,1-C][1,4]benzodiazepine-2-acrylamide], the Therapeutic index in series [1] is recorded as 88.5. For the same compound, the LD50 at 504 h in series [2] turned out to be 102 mg/kg.
As for `Cc1ccc2c(c1OC(=O)CCCC(=O)O)NC(O)C1CC(/C=C/C(N)=O)=CN1C2=O` (stereo not drawn) [COCH2 CH2 CH2COOK, 5,10,11,11a-tetrahydro-9-(4-carboxybutanoyloxy)-11-hydroxy-8-methyl-5-oxo-1H-pyrrolo-[2,1-C][1,4]-benzodiazepine-2-acrylamide], the “Prolongation of survival time, %” value in series [1] (30 mg/kg) was 185%. The LD50 at 504 h in series [2] (setting [6]) turned out to be 151 mg/kg.
With `CC(=O)SC(CC(=O)Oc1c(C)ccc2c1NC(O)C1CC(/C=C/C(N)=O)=CN1C2=O)C(=O)O` (stereo not drawn) [5,10,11,11a-tetrahydro-9-(3-carboxy-3-S-acetylmercaptopropanoyloxy)-11-hydroxy-8-methyl-5-oxo-1H-pyrrolo-[2,1-C][1,4]-benzodiazepine-2-acrylamide], in series [2] (setting [6]), the median lethal dose (LD50) at 504 h amounted to 138 mg/kg.
In series [1], `COC1Nc2c(ccc(C)c2OCCC(=O)O)C(=O)N2C=C(/C=C/C(N)=O)CC12` (stereo not drawn) [CH2 CH2 COOK, 5,10,11,11a-tetrahydro-9-(2-carboxyethoxy)-11-methoxy-8-methyl-5-oxo-1H-pyrrolo-[2,1-C][1,4]benzodiazepine-2-acrylamide] returned a Therapeutic index of 72.4. Moreover, the “Prolongation of survival time, %” value in series [1] (10 mg/kg) stood at 172%. The same compound registered an LD50 at 504 h in series [2] of 105 mg/kg.
In series [1], `Cc1ccc2c(c1O)NC(O)C1CC(/C=C/C(N)=O)=CN1C2=O` (stereo not drawn) [PBA, 5,10,11,11a-tetrahydro-9,11-dihydroxy-8-methyl-5-oxo-1H-pyrrolo-[2,1-C][1,4]-benzodiazepine-2-acrylamide, reference compound] had a Therapeutic index of 36.5. Also, the “antitumor activity (in words)” value in series [3] was “an antitumor activity”. The median lethal dose (LD50) at 504 h in series [2] came to 0.73 mg/kg. Besides, in series [4], the “antibacterial activity (in words)” value was “have an antibacterial activity”.
Consider `CCCCCCCCCC(CC(=O)Oc1c(C)ccc2c1NC(O)C1CC(C=CC(N)=O)=CN1C2=O)C(=O)O` (stereo not drawn) [Table 1 entry 4 (R^1 not printed), 5,10,11,11a-tetrahydro-9-(3-carboxydodecanoyloxy)-11-hydroxy-8-methyl-5-oxo-1H-pyrrolo-[2,1-C][1,4]-benzodiazepine-2-acrylamide], for which the median lethal dose (LD50) at 504 h in series [2] (setting [6]) is 122 mg/kg.
For the compound `Cc1ccc2c(c1OCCCN)NC(O)C1CC(/C=C/C(N)=O)=CN1C2=O` (stereo not drawn) [(CH2)3 NH2, 5,10,11,11a-tetrahydro-9-(3-aminopropoxy)-11-hydroxy-8-methyl-5-oxo-1H-pyrrolo[2,1-C][1,4]benzodiazepine-2-acrylamide], the Therapeutic index in series [1] came to 93.5. In addition, in series [2], the LD50 at 504 h is 103 mg/kg.
With `Cc1ccc2c(c1OCCCC#N)NC(O)C1CC(/C=C/C(N)=O)=CN1C2=O` (stereo not drawn) [(CH2)3 CN, 5,10,11,11a-Tetrahydro-9-(3-cyanopropoxy)-11-hydroxy-8-methyl-5-oxo-1H-pyrrolo-[2,1-C][1,4]benzodiazepine-2-acrylamide], the Therapeutic index in series [1] turned out to be 95.2. In addition, the “Prolongation of survival time, %” value in series [1] (10 mg/kg) is reported as 188%. The LD50 at 504 h in series [2] (setting [5]) was 110 mg/kg.
Regarding `Cc1ccc2c(c1OC(=O)CCC(=O)O)NC(O)C1CC(/C=C/C(N)=O)=CN1C2=O` (stereo not drawn) [COCH2 CH2COOK, 5,10,11,11a-tetrahydro-9-(3-carboxypropanoyloxy)-11-hydroxy-8-methyl-5-oxo-1H-pyrrolo[2,1-C][1,4]-benzodiazepine-2-acrylamide], the “Prolongation of survival time, %” value in series [1] (30 mg/kg) amounted to 160%. Moreover, the median lethal dose (LD50) at 504 h in series [2] worked out at 120 mg/kg.
Take `CCC(CCCN)Oc1c(C)ccc2c1NC(OC)C1CC(/C=C/C(N)=O)=CN1C2=O` (stereo not drawn) [5,10, 11, 11a-tetrahydro-9-(4-amino-1-ethylpropoxy)-11-methoxy-8-methyl-5-oxo-1H-pyrrolo-[2,1-C][1,4]benzodiazepine-2-acrylamide]: the Therapeutic index in series [1] is on record as 78.4. Also, the median lethal dose (LD50) at 504 h in series [2] (setting [5]) was found to be 115 mg/kg.
Turning to `Cc1ccc2c(c1O)N=CC1CC(/C=C/C(N)=O)=CN1C2=O` (stereo not drawn) [P'B'A', 5,11,11a-trihydro-9-hydroxy-8-methyl-5-oxo-1H-pyrrolo[2,1-C][1,4]benzodiazepine-2-acylamide], the “antitumor activity (in words)” value in series [3] is given as “an antitumor activity”. Also, the “antibacterial activity (in words)” value in series [4] is given as “have an antibacterial activity”.
In the case of `Cc1ccc2c(c1OCc1ccccc1C#N)NC(O)C1CC(/C=C/C(N)=O)=CN1C2=O` (stereo not drawn) [5,10,11,11a-tetrahydro-9-(2-cyanobenzyloxy)-11-hydroxy-8-methyl-5-oxo-1H-pyrrolo-[2,1-C][1,4]benzodiazepine-2-acrylamide], the Therapeutic index in series [1] was found to be 73.3. Further, in series [2], the median lethal dose (LD50) at 504 h amounted to 120 mg/kg.
Turning to `Cc1ccc2c(c1OC(=O)CCCCC(=O)O)NC(O)C1CC(/C=C/C(N)=O)=CN1C2=O` (stereo not drawn) [COCH2 CH2 CH2 CH2COOK, 5,10,11,11a-tetrahydro-9-(5-carboxypentanoyloxy)-11-hydroxy-8-methyl-5-oxo-1H-pyrrolo-[2,1-C][1,4]-benzodiazepine-2-acrylamide], the “Prolongation of survival time, %” value in series [1] (30 mg/kg) amounted to 172.5%. The LD50 at 504 h in series [2] (setting [6]) was 157 mg/kg.
In series [1], `COC1Nc2c(ccc(C)c2OCCc2ccc(C(=O)O)cc2)C(=O)N2C=C(/C=C/C(N)=O)CC12` (stereo not drawn) [5,10,11,11a-tetrahydro-9-[2-(4-carboxyphenyl)-ethoxy]-11-methoxy-8-methyl-5-oxo-1H-pyrrolo-[2,1-C][1,4]benzodiazepine-2-acrylamide] gave a Therapeutic index of 82.3. Moreover, the “Prolongation of survival time, %” value in series [1] (10 mg/kg) is reported as 165%. For the same compound, the LD50 at 504 h in series [2] (setting [5]) worked out at 128 mg/kg.
